{"source": "patent US20240307220A1", "about": "“Combination Therapy to Treat Temperature Sensitive Mutant Tumors” (H. LEE MOFFITT CANCER CENTER AND RESEARCH INSTITUTE INC., priority 2021, published 2024)", "key": {"[1]": {"system": "H1299 cells expressing A138V", "assay": "ChIP of p53 DNA binding in H1299 expressing A138V shifted to 32° C. with CHX or 17-AAG", "assay_type": "cell-based, human", "set-up": "rescue of p53 DNA binding at 32° C. (ChIP): dose or concentration left out as unconfirmed", "protocol": "FIGS. 4A to 4E show molecular chaperones mediate refolding of stockpiled ts p53 at permissive temperature. […] P53 binding to p21 promoter was determined by ChIP. […] P53 DNA binding was determined by ChIP. FIG. 4C is a diagram of cell-free luciferase fragment complementation assay that detects the DNA binding of p53-Cluc fusion protein. ZF-Nluc and p53-Cluc binding to DNA containing ZF and p53 sites juxtapose Nluc and Cluc domains to restore luciferase activity. […] The heat-treated p53-Cluc proteins were mixed with ZF-Nluc, DNA, ATP, E. coli extract containing 5 chaperones and incubated for 3 hrs at 23° C. P53 DNA binding was detected by measuring luciferase activity. The results are average of 3 experiments (mean±SD). **p<0.01.\nChromatin immunoprecipitation (ChIP). ChIP assay was performed using standard procedure. Crosslinked p53-DNA complexes were immunoprecipitated with DO-1 antibody. Samples were subjected to SYBR Green real-time PCR analysis using forward and reverse primers for the p53 binding sites in the p21 promoter ([…] (SEQ ID NO:7) and […] (SEQ ID NO:8)), and PUMA promoter ([…] (SEQ ID NO:9) and […] (SEQ ID NO:10))."}, "UC3 bladder cancer cells": {"system": "UC3 bladder cancer cells", "assay": "UC3 colony formation after 2 hrs drug treatment, washout and 32° C. or 37° C. incubation", "assay_type": "cell-based", "details": "2 hrs drug at 37° C., washout, 32° C. vs 37° C. 24 hrs, then 7 days at 37° C.", "protocol": "FIGS. 17A and 17B show hypothermia treatment given after chemotherapy enhances drug response in bladder cancer. […] The washed cells were incubated at 32° C. or 37° C. for 24 hrs, followed by 7 days at 37° C. and crystal violet staining for colony formation.\nStandard bladder intravesical chemotherapy involves 1-2 hr irrigation with drugs at 37° C. or 42° C. The effect of treating cells with 32° C. hypothermia after chemotherapy was tested to avoid interference with drug uptake. TS mutant p53 activation peaks 6-8 hrs after shift to 32° C., which should cooperate with chemotherapy-induced DNA damage to induce cell death. […] Saline irrigation of up to 24 hrs is routinely performed after transurethral resection of bladder tumor (TURBT) procedure to prevent clotting. Therefore, irrigation with cooled saline after intravesical chemotherapy is expected to be well-tolerated and safe."}, "[2]": {"assay": "Pharmacological induction of hypothermia by CHA in nude mice", "assay_type": "in vivo", "protocol": "FIGS. 6A to 6D show hypothermia inhibits the growth of tumors expressing ts p53. […] One group of mice was treated with 32° C. hypothermia in 24 hr×6 format. Control animals (37° C.) were not treated. […] Tumor size (mean±SD) was plotted over time.\nAnimal experiment. Animal experiments were reviewed and approved by the University of South Florida IACUC. Athymic female nude mice (6-week old, Athymic Nude-Foxn1nu, Envigo) were injected subcutaneously with 0.1 ml 1:1 slurry of Matrigel (VWR 47743-715) and 1×10^7 cells in PBS at each site. The inoculated mice were housed in a cabinet set to 28° C. (ARIA BIO-C36 ventilated cabinet, TECNIPLAST) to ensure that tumors develop at ˜37° C. Each mouse received injections at 2 sites, tumors formed at >80% of sites injected with GA10 cells. N^6-cyclohexyladenosine (CHA, Sigma C9901) was dissolved at 20 mg/ml in 25% (2-Hydroxypropyl)-β-cyclodextrin (w/v, Sigma H107) and heated at 65° C. for 10 min to ensure dissolution. Camptothecin (CPT, Santa Cruz Biotechnology sc-200871B) was freshly dissolved in 1 N NaOH, diluted to ˜0.5 mg/ml with saline, and adjusted to pH10 using HCl. To induce hypothermia, 0.2 ml saline+10% glucose containing CHA and CPT was administered by intra peritoneal injection to provide a CHA dosage of 10 mg/kg body weight and CPT (when indicated) dosage of 1.5 mg/kg body weight. The mice were kept in the 28° C. cabinet and monitored using infrared thermal imaging camera (FLIR ONE Pro, FLIR® Systems, Inc.) to verify that body temperature was maintained at ˜32° C. A second injection of CHA (10 mg/kg) in 0.4 ml saline+10% glucose was given after 10 hours to maintain hypothermia for ˜24 hours. A third injection of CHA (10 mg/kg) in 0.4 ml saline+10% glucose was given after 10 hours to maintain hypothermia for ˜32 hours. After regaining normal body temperature, the mice were kept for 2-4 days in the 28° C. cabinet to allow weight recovery (˜10% weight loss occurred during hypothermia due to loss of mobility and food intake). The treatment was repeated 4-5 times (24 hr×6 or 32 hr×5 format). In each subsequent round CHA dosage was increased by 25% to compensate for the gradual loss of sensitivity.\nPharmacological induction of hypothermia. To test the effect of hypothermia on tumors with ts p53, the adenosine A1 receptor (A1AR) agonist CHA ([…]) was used to lower mouse body temperature to 32° C. for 24-48 hours. […] Intraperitoneal injection of CHA caused body temperature to decrease to ˜3° C. above the environment in ˜10 minutes, consistent with the induction of hibernation-like response in rats and mice by A1AR agonists (Tupone D, et al. J Neurosci 2013 33:14512-25; Futatsuki T, et al. Sci Rep 2018 8:2717). […] This was achieved by keeping the CHA-treated mice in a 28° C. environment (FIG. 6A). […]"}, "[3]": {"details": "nude mice, intraperitoneal injection"}}, "data": [{"compound": "C[C@@H]1C[C@@H]([C@H](O)CC2CC(=O)NC(=O)C2)C(=O)[C@@H](C)C1", "note": "[cycloheximide]", "values": [{"measurement": "rescue of p53 DNA binding at 32° C. (ChIP)", "setting": "[1]; cycloheximide (CHX)", "result": "did not prevent the rescue of DNA binding"}]}, {"compound": "COc1cccc2c1C(=O)c1c(O)c3c(c(O)c1C2=O)C[C@@](O)(C(=O)CO)C[C@@H]3O[C@H]1C[C@H](N)[C@H](O)[C@H](C)O1", "note": "[Doxorubicin]", "values": [{"measurement": "effect of 32° C. for 24 hrs after drug on growth inhibition (colony formation)", "setting": "UC3 bladder cancer cells", "result": "modestly increased"}]}, {"compound": "C=CCNC1=C2C[C@@H](C)C[C@H](OC)[C@H](O)[C@@H](C)/C=C(\\C)[C@H](OC(N)=O)[C@@H](OC)/C=C\\C=C(/C)C(=O)NC(=CC1=O)C2=O", "note": "[17-AAG]", "values": [{"measurement": "p53 activation at 32° C. (ChIP DNA binding)", "setting": "[1]; 50 μM 17-AAG", "result": "blocked p53 activation"}]}, {"compound": "Nc1ccn([C@@H]2O[C@H](CO)[C@@H](O)C2(F)F)c(=O)n1", "note": "[Gemcitabine]", "values": [{"measurement": "effect of 32° C. for 24 hrs after drug on growth inhibition (colony formation)", "setting": "UC3 bladder cancer cells", "result": "modestly increased"}]}, {"compound": "OC[C@H]1O[C@@H](n2cnc3c(NC4CCCCC4)ncnc32)[C@H](O)[C@@H]1O", "note": "[CHA, N^6-cyclohexyladenosine]", "values": [{"measurement": "weight loss during hypothermia", "setting": "[2]; CHA 10 mg/kg injections, due to loss of mobility and food intake", "result": "~10", "unit": "%"}, {"measurement": "duration body temperature maintained at 32° C.", "setting": "[2]; multiple injections of CHA, 28° C. environment", "result": "24 to 32", "unit": "h"}, {"measurement": "body temperature after CHA injection", "setting": "[2]; [3]", "result": "~3", "unit": "°C above the environment"}, {"measurement": "time for body temperature decrease", "setting": "[2]; [3]", "result": "~10", "unit": "min"}]}]}
